ChEMBL document CHEMBL1143952, “Synthesis and characterization of carnitine nitro-derivatives” (Bioorg Med Chem, 2008)

What was measured:
[1] = target: T1, OCTN2 (organic cation/carnitine transporter 2) (Rattus norvegicus, UniProt O70594); test: Inhibition of rat kidney brush border membrane OCTN2 transporter assessed as [3H]carnitine uptake after 30 mins relative to control; parameters: scale not given: the % may be the effect or the level left; details: probe [3H]carnitine, read-out: Activity
T1 sequence (O70594 whole entry): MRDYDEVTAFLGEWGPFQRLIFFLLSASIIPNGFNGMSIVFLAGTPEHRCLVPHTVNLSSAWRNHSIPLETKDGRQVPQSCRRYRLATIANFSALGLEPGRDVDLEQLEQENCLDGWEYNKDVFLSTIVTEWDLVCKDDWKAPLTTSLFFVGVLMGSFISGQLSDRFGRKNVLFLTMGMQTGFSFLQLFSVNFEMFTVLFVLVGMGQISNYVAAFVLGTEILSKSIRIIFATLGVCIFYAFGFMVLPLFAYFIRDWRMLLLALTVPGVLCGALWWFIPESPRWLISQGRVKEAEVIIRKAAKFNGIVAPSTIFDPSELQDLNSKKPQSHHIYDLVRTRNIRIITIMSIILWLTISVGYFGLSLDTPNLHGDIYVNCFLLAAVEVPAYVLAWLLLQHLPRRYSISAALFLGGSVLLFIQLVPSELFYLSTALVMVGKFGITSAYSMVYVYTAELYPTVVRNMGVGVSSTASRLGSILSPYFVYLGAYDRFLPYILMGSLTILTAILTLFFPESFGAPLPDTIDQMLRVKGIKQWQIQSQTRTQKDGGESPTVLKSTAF

[2] = Metabolic stability in human RBC assessed as nitrite or nitrate production after 24 hrs; assay type: ADME, cell-based; details: erythrocyte
[3] = Metabolic stability in human RBC assessed as biotransformation after 24 hrs relative to unaltered compound; assay type: ADME, cell-based, Erythrocyte; details: red blood cells (RBC), read-out: Activity
[4] = Metabolic stability in human saliva assessed as biotransformation after 24 hrs relative to unaltered compound; assay type: ADME; details: read-out: Activity
[5] = Metabolic stability in human plasma assessed as biotransformation after 24 hrs relative to unaltered compound
[6] = Metabolic stability in phosphate buffer saline assessed as biotransformation after 24 hrs relative to unaltered compound; assay type: ADME; details: phosphate buffered saline; read-out: Activity
[7] = target: T2, Organic cation/carnitine transporter 2 (Rattus norvegicus, UniProt O70594); test: Inhibition of rat kidney brush border membrane OCTN2 transporter assessed as [3H]carnitine uptake after 10 mins
T2 sequence (O70594 whole entry): T1 sequence (O70594 whole entry)

activity at 0.5 h [1]	Activity [2]	metabolised at 24 h [3]	metabolised at 24 h [4]	metabolised at 24 h [5]	degraded at 24 h [6]	IC50 [7]	Compound
20%	23 nmol/mL	100%	100%	45%	100%	76 µM	C[N+](C)(C)C[C@H](CC(=O)O)OC(=O)CCCCCO[N+](=O)[O-].[Cl-]
1.5%	22 nmol/mL	100%	100%	100%	100%	–	CCOC(=O)C[C@@H](C[N+](C)(C)C)OC(=O)CCCCCO[N+](=O)[O-].[Cl-]
3.1%	40 nmol/mL	73%	75%	100%	100%	443 µM	CCOC(=O)C[C@@H](C[N+](C)(C)C)OC(=O)CCCCCCCCCCCCCCCO[N+](=O)[O-].[Cl-]
16.3%	62 nmol/mL	56%	100%	100%	100%	53 µM	C[N+](C)(C)C[C@H](CC(=O)O)OC(=O)CCCCCCCCCCCCCCCO[N+](=O)[O-].[Cl-]
